Experimental data taken from patent publication US20130123323A1, “FUNGICIDAL PYRAZOLES” (E I DU PONT DE NEMOURS AND COMPANY, priority 2010, published 2013).

Assays:
Assay type in all cases: in vivo
Botrytis cinerea = experiment: Test A: tomato botrytis, test suspension sprayed on tomato seedlings the day before inoculation; details: sprayed to run-off, inoculated following day, visual rating after 48 h at 20° C. + 3 days at 24° C., 100 = 100% disease control, 0 = no control, triplicate averaged
Experimental: General protocol for preparing test suspensions for Tests A-F: the test compounds were first dissolved in acetone in an amount equal to 3% of the final volume and then suspended at the desired concentration (in ppm) in acetone and purified water (50/50 mix) containing 250 ppm of the surfactant Trem® 014 (polyhydric alcohol esters). The resulting test suspensions were then used in Tests A-F. Each test was conducted in triplicate, and the results were averaged. Spraying a 200 ppm test suspension to the point of run-off on the test plants was the equivalent of a rate of 800 g/ha. The test suspension was sprayed to the point of run-off on tomato seedlings. The following day the seedlings were inoculated with a spore suspension of Botrytis cinerea (the causal agent of tomato botrytis) and incubated in saturated atmosphere at 20° C. for 48 h, and then moved to a growth chamber at 24° C. for 3 days, after which time visual disease ratings were made. Results for Tests A-F are given in Table A. In the Table, a rating of 100 indicates 100% disease control and a rating of 0 indicates no disease control (relative to the controls). A dash (-) indicates no test results.

Alternaria solani = experiment: Test B: tomato early blight, test suspension sprayed on tomato seedlings the day before inoculation; details: sprayed to run-off, inoculated following day, visual rating after 48 h at 27° C. + 5 days at 20° C., 100 = 100% disease control, triplicate averaged
Experimental: General protocol for preparing test suspensions for Tests A-F: the test compounds were first dissolved in acetone in an amount equal to 3% of the final volume and then suspended at the desired concentration (in ppm) in acetone and purified water (50/50 mix) containing 250 ppm of the surfactant Trem® 014 (polyhydric alcohol esters). The resulting test suspensions were then used in Tests A-F. Each test was conducted in triplicate, and the results were averaged. Spraying a 200 ppm test suspension to the point of run-off on the test plants was the equivalent of a rate of 800 g/ha. The test suspension was sprayed to the point of run-off on tomato seedlings. The following day the seedlings were inoculated with a spore suspension of Alternaria solani (the causal agent of tomato early blight) and incubated in a saturated atmosphere at 27° C. for 48 h, and then moved to a growth chamber at 20° C. for 5 days, after which time visual disease ratings were made. Results for Tests A-F are given in Table A. In the Table, a rating of 100 indicates 100% disease control and a rating of 0 indicates no disease control (relative to the controls). A dash (-) indicates no test results.

Septoria nodorum = experiment: Test C: wheat glume blotch, test suspension sprayed on wheat seedlings the day before inoculation; details: sprayed to run-off, inoculated following day, visual rating after 48 h at 24° C. + 9 days at 20° C., 100 = 100% disease control, triplicate averaged
Experimental: (§1) General protocol for preparing test suspensions for Tests A-F: the test compounds were first dissolved in acetone in an amount equal to 3% of the final volume and then suspended at the desired concentration (in ppm) in acetone and purified water (50/50 mix) containing 250 ppm of the surfactant Trem® 014 (polyhydric alcohol esters). The resulting test suspensions were then used in Tests A-F. Each test was conducted in triplicate, and the results were averaged. Spraying a 200 ppm test suspension to the point of run-off on the test plants was the equivalent of a rate of 800 g/ha. The test suspension was sprayed to the point of run-off on wheat seedlings. The following day the seedlings were inoculated with a spore suspension of Septoria nodorum (the causal agent of wheat glume blotch) and incubated in a saturated atmosphere at 24° C. for 48 h, and then moved to a growth chamber at 20° C. for 9 days, after which time visual disease ratings were made. Results for Tests A-F are given in Table A. In the Table, a rating of 100 indicates 100% disease control and a rating of 0 indicates no disease control (relative to the controls). A dash (-) indicates no test results.

Septoria tritici = experiment: Test D: wheat leaf blotch, test suspension sprayed on wheat seedlings the day before inoculation; details: sprayed to run-off, inoculated following day, visual rating after 48 h at 24° C. + 19 days at 20° C., 100 = 100% disease control, triplicate averaged
Experimental: as §1, with “of Septoria tritici (the causal” for “of Septoria nodorum (the causal”, “of wheat leaf blotch) and” for “of wheat glume blotch) and”, “incubated in saturated atmosphere” for “incubated in a saturated atmosphere”, “and then the seedlings were moved to” for “and then moved to”, “C. for 19 additional days, after” for “C. for 9 days, after”

[1] = system: Puccinia recondita f. sp. tritici; experiment: Test E1: wheat leaf rust, wheat seedlings sprayed after inoculation; details: wheat seedlings inoculated, 24 h + 2 days at 20° C., then sprayed to run-off; visual rating 4 days later; 100 = 100% disease control; triplicate averaged
Experimental: as §1, with “Wheat” for “The test suspension was sprayed to the point of run-off on wheat seedlings. The following day the”, “Puccinia recondita f. sp. tritici” for “Septoria nodorum”, “leaf rust)” for “glume blotch)”, “20°” for “24°”, “24” for “48”, “2 days. At the end of this time the test suspension was sprayed to the point of run-off on the wheat seedlings, and then the seedlings were moved to a growth chamber at 20° C. for 4” for “9”

[2] = system: Puccinia recondita f. sp. tritici; experiment: Test E2: wheat leaf rust, test suspension sprayed on wheat seedlings the day before inoculation; details: sprayed to run-off, inoculated following day, visual rating after 24 h + 6 days at 20° C., 100 = 100% disease control, triplicate averaged
Experimental: as §1, with “Puccinia recondita f. sp. tritici” for “Septoria nodorum”, “leaf rust)” for “glume blotch)”, “20°” for “24°”, “24” for “48”, “6” for “9”

[3] = system: Blumeria graminis f. sp. tritici; experiment: Test F: wheat powdery mildew, test suspension sprayed on wheat seedlings the day before inoculation; details: sprayed to run-off, inoculated with spore dust following day, visual rating after 8 days at 20° C., 100 = 100% disease control, triplicate averaged
Experimental: as §1, with “spore dust” for “spore suspension”, “of Blumeria graminis f. sp. tritici (also known as Erysiphe graminis f. sp. tritici, the” for “of Septoria nodorum (the”, “wheat powdery mildew)” for “wheat glume blotch)”, “in” for “in a saturated atmosphere at 24° C. for 48 h, and then moved to”, “for 8” for “for 9”

| SMILES | Test A disease control rating (Botrytis cinerea) [%] | Test B disease control rating (Alternaria solani) [%] | Test C disease control rating (Septoria nodorum) [%] | Test D disease control rating (Septoria tritici) [%] | Test E1 disease control rating [1] [%] | Test E2 disease control rating [2] [%] | Test F disease control rating [3] [%] |
| --- | --- | --- | --- | --- | --- | --- | --- |
| Cc1nn(C)c(C(F)c2ccc(F)cc2F)c1-c1ccc(F)cc1Cl (centres unmarked) [Compound 1, 4-(2-Chloro-4-fluorophenyl)-5-[(2,4-difluorophenyl)fluoromethyl]-1,3-dimethyl-1H-pyrazole] | 100 | 83 | 0 | 98 | 40 | 99 | 69 |
| Cc1nn(C)c(C(Cl)c2ccc(F)cc2F)c1-c1ccc(F)cc1Cl (centres unmarked) [Compound 2, 5-[Chloro(2,4-difluorophenyl)methyl]-4-(2-chloro-4-fluorophenyl)-1,3-dimethyl-1H-pyrazole] | 99 | 0 | 0 | 100 | 0 | 94 | 0 |
| COc1cc(F)c(C(F)c2c(-c3c(F)cccc3F)c(C)nn2C)c(F)c1 (centres unmarked) [Compound 3] | 100 | 46 | 0 | 100 | 98 | 100 | 99 |
| Cc1nn(C)c(C(F)c2ccc(F)cc2F)c1-c1c(F)cccc1F (centres unmarked) [Compound 4] | 99 | 98 | 0 | 52 | 66 | 18 | 0 |
| Cc1nn(C)c(C(Cl)c2ccc(F)cc2F)c1-c1c(F)cccc1F (centres unmarked) [Compound 5] | 100 | 100 | 89 | 100 | 9 | 100 | 100 |
| Cc1nn(C)c(C(F)c2ccc(F)cc2Cl)c1-c1c(F)cccc1Cl (centres unmarked) [Compound 6] |  |  |  | 96 |  | 98 | 87 |
| Cc1nn(C)c(C(Cl)c2ccc(F)cc2Cl)c1-c1c(F)cccc1Cl (centres unmarked) [Compound 7] |  |  |  | 100 |  | 100 | 100 |
